These results are taken from patent EP4714938A1, “HDAC1/2 SELECTIVE INHIBITOR AND USE THEREOF” (Wigen Biomedicine Technology (Shanghai) Co., Ltd., priority 2023, dated 2024).

The nature of series [1]: Stability in liver microsomes. The note with it: for half-life at 1 µM: 1 µM compound, 37 °C, NADPH regeneration system. In kind it is in vitro ADME. Here is the method:
After the 1 µM compound was individually incubated at 37 °C for various durations with […] liver microsomes from humans, monkeys, beagles, rats, or mice in the presence of an NADPH regeneration system, LC-MS-MS was used to analyze the remaining amount of the compound, and T1/2 was calculated. Table 10. Evaluation results of stability of compounds of the present disclosure in human and mouse liver microsomes

Series [2] deals with HDAC5 (Homo sapiens, UniProt Q9UQL6). Put plainly: HDAC enzyme inhibitory activity, FRET method. In kind it is biochemical. The note with it: Table 6; read-out: IC50 HDAC subtype 5.
HDAC5, sequence (Q9UQL6 whole entry, species assumed): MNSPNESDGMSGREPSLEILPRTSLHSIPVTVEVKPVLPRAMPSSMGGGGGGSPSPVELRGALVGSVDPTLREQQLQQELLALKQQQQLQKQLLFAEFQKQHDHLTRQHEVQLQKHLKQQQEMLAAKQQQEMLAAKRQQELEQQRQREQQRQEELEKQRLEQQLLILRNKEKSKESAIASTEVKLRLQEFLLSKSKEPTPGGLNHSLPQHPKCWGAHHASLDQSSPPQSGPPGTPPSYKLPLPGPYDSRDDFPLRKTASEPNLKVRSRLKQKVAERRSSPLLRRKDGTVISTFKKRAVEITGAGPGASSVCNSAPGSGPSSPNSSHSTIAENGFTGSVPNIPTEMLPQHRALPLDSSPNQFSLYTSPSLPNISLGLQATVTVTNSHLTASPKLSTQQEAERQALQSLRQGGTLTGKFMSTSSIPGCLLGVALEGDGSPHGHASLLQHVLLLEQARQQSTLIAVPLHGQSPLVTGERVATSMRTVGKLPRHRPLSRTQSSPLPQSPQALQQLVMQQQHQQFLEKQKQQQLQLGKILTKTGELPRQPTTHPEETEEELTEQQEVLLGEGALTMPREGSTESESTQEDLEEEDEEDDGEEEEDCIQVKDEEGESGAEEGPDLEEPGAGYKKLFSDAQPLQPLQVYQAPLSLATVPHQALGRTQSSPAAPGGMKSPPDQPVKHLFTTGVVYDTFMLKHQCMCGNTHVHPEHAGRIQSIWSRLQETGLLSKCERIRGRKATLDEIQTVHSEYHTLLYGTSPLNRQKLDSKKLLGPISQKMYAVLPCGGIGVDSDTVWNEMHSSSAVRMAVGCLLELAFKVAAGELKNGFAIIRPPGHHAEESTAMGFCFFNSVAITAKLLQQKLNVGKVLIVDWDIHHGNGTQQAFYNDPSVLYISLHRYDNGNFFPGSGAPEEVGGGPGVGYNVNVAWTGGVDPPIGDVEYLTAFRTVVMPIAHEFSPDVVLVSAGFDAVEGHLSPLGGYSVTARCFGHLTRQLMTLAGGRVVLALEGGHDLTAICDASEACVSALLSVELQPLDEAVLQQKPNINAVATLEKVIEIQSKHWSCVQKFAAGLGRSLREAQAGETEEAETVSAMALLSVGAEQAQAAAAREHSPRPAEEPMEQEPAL
Procedure: (§1) The compounds of the present disclosure were assayed for enzyme inhibitory activity against various subtypes of HDAC enzymes by the FRET method. The various subtypes of HDAC enzymes were obtained either through purification or direct purchase of assay kits.
(§2) The specific method was as follows: The enzyme was added to a 384-well plate, and a reaction buffer was added to the control well. Serially diluted DMSO sample solutions were added to the reaction wells, and the plate was incubated at room temperature for 15 min. Then a chromogenic agent was added to stop the reaction, and fluorescence was generated. The fluorescence intensity was measured using an EnVision multi-label microplate reader (excitation: 355 nm, emission: 460 nm). The endpoint value was read after the color development reached stability. The inhibition IC50 of the compounds was calculated using GraphPad Prism4 software relative to DMSO.
Series [3] addresses T1, HDAC11 (Homo sapiens, UniProt Q96DB2).
T1 sequence (Q96DB2 1-347): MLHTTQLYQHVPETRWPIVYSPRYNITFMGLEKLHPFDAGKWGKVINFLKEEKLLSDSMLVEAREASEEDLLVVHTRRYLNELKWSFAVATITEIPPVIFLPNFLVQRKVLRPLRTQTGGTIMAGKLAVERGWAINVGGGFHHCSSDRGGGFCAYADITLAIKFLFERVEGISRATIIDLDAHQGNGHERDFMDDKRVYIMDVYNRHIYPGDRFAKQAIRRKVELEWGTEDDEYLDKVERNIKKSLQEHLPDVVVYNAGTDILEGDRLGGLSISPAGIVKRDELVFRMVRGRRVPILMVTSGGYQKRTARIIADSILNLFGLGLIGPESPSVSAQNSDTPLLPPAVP
Kind of series: HDAC enzyme inhibitory activity, FRET method. It is filed as biochemical. The note with it: Table 6; read-out: IC50 HDAC subtype 11.
Procedure: as §1, §2

The target in series [4] is T2, HDAC6 (Homo sapiens, UniProt Q9UBN7).
T2 sequence (Q9UBN7 1-1215): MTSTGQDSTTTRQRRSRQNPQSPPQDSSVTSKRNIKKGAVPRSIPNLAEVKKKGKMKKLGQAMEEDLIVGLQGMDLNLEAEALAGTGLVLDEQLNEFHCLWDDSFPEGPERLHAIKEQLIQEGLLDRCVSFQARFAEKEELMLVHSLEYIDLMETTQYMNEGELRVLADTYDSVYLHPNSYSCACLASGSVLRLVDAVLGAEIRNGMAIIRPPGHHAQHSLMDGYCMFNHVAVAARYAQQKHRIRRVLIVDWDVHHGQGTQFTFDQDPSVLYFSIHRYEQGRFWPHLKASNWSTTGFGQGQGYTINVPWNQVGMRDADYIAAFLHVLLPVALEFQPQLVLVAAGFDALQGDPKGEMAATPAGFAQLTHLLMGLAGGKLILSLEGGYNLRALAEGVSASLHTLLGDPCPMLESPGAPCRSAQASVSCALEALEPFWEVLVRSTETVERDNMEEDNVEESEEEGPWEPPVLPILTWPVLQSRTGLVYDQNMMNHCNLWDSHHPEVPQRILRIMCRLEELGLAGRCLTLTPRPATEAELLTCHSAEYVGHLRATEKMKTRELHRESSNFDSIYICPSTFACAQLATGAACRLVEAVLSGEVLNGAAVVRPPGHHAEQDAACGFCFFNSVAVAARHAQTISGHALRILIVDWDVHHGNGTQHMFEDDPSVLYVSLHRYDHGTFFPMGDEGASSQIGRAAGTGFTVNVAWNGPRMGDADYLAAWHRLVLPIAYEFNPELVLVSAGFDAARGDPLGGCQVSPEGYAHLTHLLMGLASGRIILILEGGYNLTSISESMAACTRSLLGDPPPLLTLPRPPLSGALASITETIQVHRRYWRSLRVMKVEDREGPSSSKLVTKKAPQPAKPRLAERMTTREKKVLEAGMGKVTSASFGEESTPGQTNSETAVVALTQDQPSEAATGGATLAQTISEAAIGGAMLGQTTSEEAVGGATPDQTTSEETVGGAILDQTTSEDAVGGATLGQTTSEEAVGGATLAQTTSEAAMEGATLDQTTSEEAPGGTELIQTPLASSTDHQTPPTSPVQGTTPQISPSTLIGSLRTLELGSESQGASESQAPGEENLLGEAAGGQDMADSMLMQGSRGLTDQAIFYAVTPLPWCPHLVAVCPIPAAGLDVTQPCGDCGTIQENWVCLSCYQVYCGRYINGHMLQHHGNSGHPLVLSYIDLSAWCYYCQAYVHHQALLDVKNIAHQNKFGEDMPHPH
Put plainly: HDAC enzyme inhibitory activity, FRET method. It is filed as biochemical. The note with it: Table 6; read-out: IC50 HDAC subtype 6.
Procedure: as §1, §2

Series [5] concerns the target T3, HDAC7 (Homo sapiens, UniProt Q8WUI4).
T3 sequence (Q8WUI4 1-952): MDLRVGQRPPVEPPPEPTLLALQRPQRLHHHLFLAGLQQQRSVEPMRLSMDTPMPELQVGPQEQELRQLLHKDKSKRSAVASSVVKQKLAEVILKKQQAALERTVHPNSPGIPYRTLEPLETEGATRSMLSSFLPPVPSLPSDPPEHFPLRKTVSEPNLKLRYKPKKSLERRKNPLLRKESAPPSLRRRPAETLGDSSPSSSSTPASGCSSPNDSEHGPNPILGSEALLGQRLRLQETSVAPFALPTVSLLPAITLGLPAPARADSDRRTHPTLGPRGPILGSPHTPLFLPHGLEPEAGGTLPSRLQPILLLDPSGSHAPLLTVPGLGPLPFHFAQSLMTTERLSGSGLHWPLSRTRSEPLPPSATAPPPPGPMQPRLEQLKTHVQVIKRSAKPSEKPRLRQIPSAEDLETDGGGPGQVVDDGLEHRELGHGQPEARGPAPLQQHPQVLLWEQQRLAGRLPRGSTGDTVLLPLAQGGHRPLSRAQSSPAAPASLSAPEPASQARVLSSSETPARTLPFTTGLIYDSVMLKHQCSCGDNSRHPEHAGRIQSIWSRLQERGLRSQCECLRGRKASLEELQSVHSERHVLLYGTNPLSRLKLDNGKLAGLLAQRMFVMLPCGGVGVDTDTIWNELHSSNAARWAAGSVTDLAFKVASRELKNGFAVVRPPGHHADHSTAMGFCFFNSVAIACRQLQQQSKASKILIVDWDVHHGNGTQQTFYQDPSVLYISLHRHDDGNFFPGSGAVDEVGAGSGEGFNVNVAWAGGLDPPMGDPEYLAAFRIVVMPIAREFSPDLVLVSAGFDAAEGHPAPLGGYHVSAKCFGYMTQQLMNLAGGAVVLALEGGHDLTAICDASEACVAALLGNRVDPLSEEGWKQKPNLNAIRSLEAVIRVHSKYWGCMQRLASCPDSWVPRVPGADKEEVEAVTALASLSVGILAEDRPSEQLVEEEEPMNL
Kind of series: HDAC enzyme inhibitory activity, FRET method. In kind it is biochemical. Particulars: Table 6; read-out: IC50 HDAC subtype 7.
Procedure: as §1, §2

`CS(C)(=O)=Nc1ccc(C(=O)Nc2cc(-c3ccc(F)cc3)ccc2N)cc1` [Compound 1, N-(4-Amino-4'-fluoro-[1,1'-biphenyl]-3-yl)-4-((dimethyl(oxo)-1^λ-6-sulfaneylidene)amino)benzamide]: the figures for the CLint scaled at 1 µM in series [1] (Human liver microsomes) and in series [1] (Mouse liver microsomes) were 17.4 mL/min/kg and 5.55 mL/min/kg, respectively. The Clliver is 9.45 mL/min/kg in series [1] (Human liver microsomes) and 5.23 mL/min/kg in series [1] (Mouse liver microsomes). The half-life at 1 µM in series [1] (Human liver microsomes) was found to be 1.67 h; in series [1] (Mouse liver microsomes), 16.4 h. The IC50 in series [2], in series [3], in series [4] and in series [5] was greater than 30 µM throughout.
